# Literature values, collected in patent US7439254B2, “Compounds, compositions, and methods” (Cytokinetics, Inc., priority 2003, dated 2008).
# Test system: A549 cells
# Conditions: data provided by National Cancer Institute, Developmental Therapeutic Program
row,Structure (SMILES),GI50 [µM]
1,O=c1[nH]cc(F)c(=O)[nH]1 [5-fluorouracil],1
2,NC(=O)NO [hydroxyurea],500
3,CC(=O)O[C@H]1C(=O)[C@@]2(C)[C@H]([C@H](OC(=O)c3ccccc3)[C@]3(O)C[C@H](OC(=O)[C@H](O)[C@@H](NC(=O)c4ccccc4)c4ccccc4)C(C)=C1C3(C)C)[C@]1(OC(C)=O)CO[C@@H]1C[C@@H]2O [paclitaxel],0.004
4,COc1cccc2c1C(=O)c1c(O)c3c(c(O)c1C2=O)C[C@@](O)(C(=O)CO)C[C@@H]3O[C@H]1C[C@H](N)[C@H](O)[C@H](C)O1 [doxorubicin],0.063
